Columns and labels:
[1] = molecular target: T1, 3',5'-cyclic-AMP phosphodiesterase 4D (Homo sapiens, UniProt Q08499); experiment: Inhibition of human recombinant PDE4D3 using FAM-cAMP as substrate measured after 1 hr by IMAP TR-FRET assay relative to control
Homo sapiens [2] = organism: Homo sapiens; experiment: Inhibition of human recombinant PDE4A1A using FAM-cAMP as substrate measured after 1 hr by IMAP TR-FRET assay relative to control
Mus musculus [3] = experiment: Antiinflammatory activity against A/J mouse assessed as decrease in LPS-induced airway hyperreactivity at 3 umol/kg, po treated via gavage for 1 hr before LPS stimulation measured after 24 hrs by whole body plethysmography relative to control; type: functional; details: 25 h
Mus musculus [4] = experiment: Antiinflammatory activity against A/J mouse assessed as decrease in LPS-induced TNFalpha production in lungs at 3 umol/kg, po treated via gavage for 1 hr before LPS stimulation and measured after 24 hrs by ELISA relative to control; type: functional; details: 25 h
[5] = Inhibition of human recombinant PDE4A1A using FAM-cAMP as substrate measured after 1 hr by IMAP TR-FRET assay
[6] = molecular target: T2, 3',5'-cyclic-AMP phosphodiesterase 4C (Homo sapiens, UniProt Q08493); experiment: Inhibition of human recombinant PDE4C using FAM-cAMP as substrate at 10 uM measured after 1 hr by IMAP TR-FRET assay
T2 sequence (Q08493 whole entry): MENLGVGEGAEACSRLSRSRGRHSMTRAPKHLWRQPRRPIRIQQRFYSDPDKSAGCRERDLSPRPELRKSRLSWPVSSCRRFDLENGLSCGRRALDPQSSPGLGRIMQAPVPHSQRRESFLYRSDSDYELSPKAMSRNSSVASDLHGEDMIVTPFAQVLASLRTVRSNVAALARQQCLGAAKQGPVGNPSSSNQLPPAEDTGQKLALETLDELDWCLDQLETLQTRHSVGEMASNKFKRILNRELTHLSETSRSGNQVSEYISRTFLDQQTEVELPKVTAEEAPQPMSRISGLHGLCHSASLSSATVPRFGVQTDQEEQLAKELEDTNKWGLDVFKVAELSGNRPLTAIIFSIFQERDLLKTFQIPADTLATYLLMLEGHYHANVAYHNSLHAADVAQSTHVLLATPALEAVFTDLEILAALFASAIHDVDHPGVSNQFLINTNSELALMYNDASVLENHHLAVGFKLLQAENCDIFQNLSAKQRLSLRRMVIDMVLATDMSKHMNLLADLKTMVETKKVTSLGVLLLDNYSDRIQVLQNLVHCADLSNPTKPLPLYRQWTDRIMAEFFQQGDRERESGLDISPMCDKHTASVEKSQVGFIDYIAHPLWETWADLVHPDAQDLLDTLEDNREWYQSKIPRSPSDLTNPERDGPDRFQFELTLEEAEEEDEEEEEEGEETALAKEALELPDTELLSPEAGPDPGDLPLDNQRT

Homo sapiens [7] = organism: Homo sapiens; experiment: Inhibition of human recombinant PDE4A1A using FAM-cAMP as substrate at 10 uM measured after 1 hr by IMAP TR-FRET assay
[8] = molecular target: T3, 3',5'-cyclic-AMP phosphodiesterase 4B (Homo sapiens, UniProt Q07343); experiment: Inhibition of human recombinant PDE4B1 using FAM-cAMP as substrate at 10 uM measured after 1 hr by IMAP TR-FRET assay
T3 sequence (Q07343 whole entry): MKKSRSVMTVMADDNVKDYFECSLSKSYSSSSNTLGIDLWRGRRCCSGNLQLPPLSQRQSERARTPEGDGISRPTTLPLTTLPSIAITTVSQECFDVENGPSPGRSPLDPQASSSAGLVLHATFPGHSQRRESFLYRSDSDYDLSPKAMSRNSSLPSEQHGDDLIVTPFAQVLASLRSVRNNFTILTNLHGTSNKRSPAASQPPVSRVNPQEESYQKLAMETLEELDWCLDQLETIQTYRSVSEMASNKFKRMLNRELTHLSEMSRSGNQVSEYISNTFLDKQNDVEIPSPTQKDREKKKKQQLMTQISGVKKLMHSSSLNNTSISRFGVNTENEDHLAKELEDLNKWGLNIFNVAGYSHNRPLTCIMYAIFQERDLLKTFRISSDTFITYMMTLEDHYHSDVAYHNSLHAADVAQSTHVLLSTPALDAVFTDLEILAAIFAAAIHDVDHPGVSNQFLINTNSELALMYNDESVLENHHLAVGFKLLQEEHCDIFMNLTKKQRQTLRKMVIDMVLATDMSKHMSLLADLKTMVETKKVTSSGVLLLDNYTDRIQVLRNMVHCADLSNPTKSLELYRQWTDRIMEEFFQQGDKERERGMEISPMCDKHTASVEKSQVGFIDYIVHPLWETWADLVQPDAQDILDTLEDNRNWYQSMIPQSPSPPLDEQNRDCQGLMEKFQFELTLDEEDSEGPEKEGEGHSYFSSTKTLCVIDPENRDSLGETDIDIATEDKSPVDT

[9] = molecular target: T1, 3',5'-cyclic-AMP phosphodiesterase 4D; experiment: Inhibition of human recombinant PDE4D3 using FAM-cAMP as substrate at 10 uM measured after 1 hr by IMAP TR-FRET assay
[10] = pampa, 8 h
in vitro = details: PAMPA
[11] = molecular target: 3',5'-cyclic-AMP phosphodiesterase 4A (Homo sapiens, UniProt P27815); experiment: Inhibition of PDE4A (unknown origin)
Sequence of 3',5'-cyclic-AMP phosphodiesterase 4A (P27815 whole entry): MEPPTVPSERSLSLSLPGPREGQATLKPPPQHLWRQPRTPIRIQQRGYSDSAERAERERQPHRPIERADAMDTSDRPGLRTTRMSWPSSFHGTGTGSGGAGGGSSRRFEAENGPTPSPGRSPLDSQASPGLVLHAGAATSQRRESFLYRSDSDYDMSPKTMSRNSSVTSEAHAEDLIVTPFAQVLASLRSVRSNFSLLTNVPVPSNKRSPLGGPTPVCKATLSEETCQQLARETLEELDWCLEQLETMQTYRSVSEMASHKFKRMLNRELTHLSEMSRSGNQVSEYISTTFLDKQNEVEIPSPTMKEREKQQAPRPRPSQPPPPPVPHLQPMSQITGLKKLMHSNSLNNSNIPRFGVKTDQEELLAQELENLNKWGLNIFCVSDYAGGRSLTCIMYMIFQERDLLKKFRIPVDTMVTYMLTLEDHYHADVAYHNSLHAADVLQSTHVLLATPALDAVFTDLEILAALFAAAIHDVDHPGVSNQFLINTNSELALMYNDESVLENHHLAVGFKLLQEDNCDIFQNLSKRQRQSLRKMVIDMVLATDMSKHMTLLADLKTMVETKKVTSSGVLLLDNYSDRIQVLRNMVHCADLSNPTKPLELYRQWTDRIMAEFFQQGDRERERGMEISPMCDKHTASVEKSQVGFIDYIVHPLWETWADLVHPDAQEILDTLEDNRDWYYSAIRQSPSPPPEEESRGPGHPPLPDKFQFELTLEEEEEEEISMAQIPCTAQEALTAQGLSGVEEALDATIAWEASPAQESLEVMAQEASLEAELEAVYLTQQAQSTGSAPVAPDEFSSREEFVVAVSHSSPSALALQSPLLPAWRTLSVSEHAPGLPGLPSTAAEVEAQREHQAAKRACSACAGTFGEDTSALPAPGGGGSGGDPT

[12] = molecular target: T3, 3',5'-cyclic-AMP phosphodiesterase 4B; experiment: Inhibition of PDE4B (unknown origin)
[13] = molecular target: T2, 3',5'-cyclic-AMP phosphodiesterase 4C
Description: Inhibition of PDE4C (unknown origin)

[14] = molecular target: T1, 3',5'-cyclic-AMP phosphodiesterase 4D
Description: Inhibition of PDE4D (unknown origin)

T1 sequence (Q08499 whole entry): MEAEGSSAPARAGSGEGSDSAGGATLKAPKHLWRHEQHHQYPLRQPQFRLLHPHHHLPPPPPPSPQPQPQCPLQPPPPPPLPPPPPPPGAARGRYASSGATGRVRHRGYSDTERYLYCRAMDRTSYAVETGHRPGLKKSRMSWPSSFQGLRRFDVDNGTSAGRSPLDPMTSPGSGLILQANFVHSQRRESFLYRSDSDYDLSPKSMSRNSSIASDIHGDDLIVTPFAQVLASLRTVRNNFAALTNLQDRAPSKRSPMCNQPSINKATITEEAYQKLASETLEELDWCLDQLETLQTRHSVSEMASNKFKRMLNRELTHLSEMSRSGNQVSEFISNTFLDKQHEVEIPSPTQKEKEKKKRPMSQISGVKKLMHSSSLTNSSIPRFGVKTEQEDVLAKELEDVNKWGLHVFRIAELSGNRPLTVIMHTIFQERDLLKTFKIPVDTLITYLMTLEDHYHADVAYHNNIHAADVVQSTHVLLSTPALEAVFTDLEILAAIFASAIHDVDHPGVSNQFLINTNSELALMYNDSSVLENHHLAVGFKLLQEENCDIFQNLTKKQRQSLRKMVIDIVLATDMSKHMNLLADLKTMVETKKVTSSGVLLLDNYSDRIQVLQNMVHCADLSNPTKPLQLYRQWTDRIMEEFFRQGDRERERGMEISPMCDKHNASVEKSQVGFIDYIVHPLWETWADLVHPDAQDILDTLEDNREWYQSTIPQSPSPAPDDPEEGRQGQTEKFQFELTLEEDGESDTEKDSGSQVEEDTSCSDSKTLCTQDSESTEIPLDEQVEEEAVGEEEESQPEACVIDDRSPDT

| Structure (SMILES) | Emax [1] | Emax (Homo sapiens [2]) | inhibition in vivo at 3 µmol/kg (Mus musculus [3]) | inhibition in vivo at 3 µmol/kg (Mus musculus [4]) | IC50 [5] | inhibition [6] | inhibition (Homo sapiens [7]) | inhibition [8] | inhibition [9] | Drug absorption [10] | Papp at 8 h (in vitro) | IC50 [11] | IC50 [12] | IC50 [13] | IC50 [14] |
| --- | --- | --- | --- | --- | --- | --- | --- | --- | --- | --- | --- | --- | --- | --- | --- |
| COc1ccc([C@]2(C#N)CC[C@@H](C(=O)O)CC2)cc1OC1CCCC1 [CILOMILAST] | 99% | 99% | 94% | 98.9% | 0.2 µM | 98.5% | 91.3% | 91.3% | 98.8% | 93.74% | 7.29 ×10⁻⁶ cm/s |  |  |  |  |
| C[C@@H](Oc1ccc(CNC(=O)c2cccnc2Oc2ccc3c(c2)OCO3)c(F)c1)C(=O)O |  |  |  |  |  |  |  |  |  |  |  | 0.31 µM | 0.287 µM | 3.86 µM | 0.003 µM |
